In patent US20260217701A1, “SELECTIVE BET INHIBITORS AND USES THEREOF” (Tay Therapeutics Limited, priority 2022, published 2026):
“And” between values parts separate entries of the source, which are not always exact repeats. Equal values may be shown once.

Test system: imiquimod-induced psoriasis
Assay: Imiquimod-induced psoriasis model
Format: in vivo, mice
Settings: for Body Weight D1: Day 1 (before treatment start on Day 8); for Body Weight D1 / Body Weight D3 / Body Weight D5 / Body Weight D7 / Body Weight D8 / Body Weight D9 / Body Weight D10 / Body Weight D11 / Body Weight D12 / Body Weight D13 / Body Weight D14 / Body Weight D15 / MBWC D1-D8 / MBWC D8-D15 / PASI Scores: individual animals; for Body Weight D3: Day 3 (before treatment start on Day 8); for Body Weight D5: Day 5 (before treatment start on Day 8); for Body Weight D7: Day 7 (before treatment start on Day 8); for Body Weight D8: Day 8 (first day of treatment); for Body Weight D9: Day 9; for Body Weight D10: Day 10; for Body Weight D11: Day 11; for Body Weight D12: Day 12; for Body Weight D13: Day 13; for Body Weight D14: Day 14; for Body Weight D15: Day 15; for MBWC D1-D8: body weight change Day 1 to Day 8 (before treatment); for MBWC D8-D15: body weight change Day 8 to Day 15 (treatment period); for PASI Scores: IMI + Compound B 1 mg/kg
Method in brief: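 Mice given topical imiquimod (5% cream) daily on depilated backs Days 1–14; Compound A in 5% DMSO/40% PEG-400/55% saline from Day 8, clobetasol topical as reference. Daily PASI (erythema, induration, peeling, each 0–4, summed) Days 8–15; spleen weight, open-field behaviour, serum IL-1B, IL-6, IL-17, TNF-α, IL-22, IL-23 at Day 15.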

[1] = IMI + 1 mg/kg, 1 mg/kg, in g (unit assumed)
[2] = IMI + 3 mg/kg, 3 mg/kg, in g (unit assumed)
[3] = IMI + 10 mg/kg, 10 mg/kg, in g (unit assumed)

COCCn1cc(-c2ccccc2)c(-c2cn(C)c(=O)c3[nH]c(-c4cnn(C(F)(F)F)c4)cc23)cc1=O [Compound B, 4-(1-(2-methoxyethyl)-2-oxo-5-phenyl-1,2-dihydropyridin-4-yl)-6-methyl-2-(1-(trifluoromethyl)-1H-pyrazol-4-yl)-1,6-dihydro-7H-pyrrolo[2,3-c]pyridin-7-one]
symptoms by day 15 (representative images) (10 mg/kg (printed 10 mg/ml)): nearly entirely symptom free | mean PASI score on day 15, dose dependence (1, 3, 10 mg/kg, 10 mg/kg most effective): dose-dependent decrease in PASI scores | efficacy on the treatment of psoriasis (2 lowest doses of 1.0 and 3.0 mg/kg bw): moderate efficacy | Body Weight D1 (IMI + 1 mg/kg, 1 mg/kg): 17.85 and 16.71 and 18.14 (2×) and 17.67 and 18.64 and 18.37 and 17.36 | Body Weight D3 [1]: 16.05 and 15.75 and 16.34 and 16.73 and 17.52 and 16.25 and 15.31 and 17.36 | Body Weight D5 [1]: 15.71 and 15.27 and 17.54 and 16.77 and 17.97 and 16.83 and 15.98 and 16.57 | Body Weight D7 [1]: 16.02 and 15.76 and 17.96 and 17.02 and 17.69 and 17.48 and 16.75 and 17.68 | Body Weight D8 [1]: 15.83 and 15.34 and 17.54 and 16.58 and 17.61 and 16.23 and 16.35 and 17.45 | Body Weight D9 [1]: 15.70 and 15.29 and 17.68 and 16.64 and 17.26 and 15.94 and 16.69 and 17.21 | Body Weight D10 [1]: 15.94 and 15.03 and 17.60 and 16.38 and 17.13 and 16.08 and 15.92 and 17.66 | Body Weight D11 [1]: 16.10 and 14.61 and 17.64 and 16.08 and 17.41 and 16.29 and 16.64 and 17.72 | Body Weight D12 [1]: 16.03 and 14.93 and 17.80 and 16.29 and 17.39 and 16.49 and 16.17 and 17.53 | Body Weight D13 (IMI + 1 mg/kg, 1 mg/kg): 16.53 and 14.84 and 18.05 and 16.45 (2×) and 17.04 (2×) and 16.34 | Body Weight D14 [1]: 16.38 and 14.75 and 18.20 and 16.97 and 17.80 and 16.16 and 16.37 and 17.46 | Body Weight D15 [1]: 16.34 and 14.67 and 18.01 and 16.62 and 17.29 and 16.44 and 16.12 and 17.36 | MBWC D1-D8 (IMI + 1 mg/kg, 1 mg/kg): −2.02 and −1.37 and −0.60 and −1.09 and −1.03 and −2.14 and −1.01 and −0.69 | MBWC D8-D15 (IMI + 1 mg/kg, 1 mg/kg): 0.51 and −0.67 and 0.47 and 0.04 and −0.32 and 0.21 and −0.23 and −0.09 | Body Weight D1 [2]: 16.04 and 18.93 and 17.71 and 17.81 and 16.63 and 17.34 and 17.52 and 18.08 | Body Weight D3 [2]: 13.11 and 16.65 and 15.84 and 16.79 and 15.99 and 16.64 and 14.93 and 16.90 | Body Weight D5 [2]: 14.01 and 16.29 and 15.26 and 17.65 and 16.66 and 17.47 and 16.35 and 16.80 | Body Weight D7 [2]: 14.25 and 16.26 and 15.31 and 17.34 and 16.40 and 17.79 and 16.44 and 16.80 | Body Weight D8 (IMI + 3 mg/kg, 3 mg/kg): 13.57 and 15.67 and 15.44 and 17.59 and 16.51 (2×) and 17.07 and 16.13 | Body Weight D9 [2]: 13.93 and 15.56 and 15.22 and 17.78 and 16.23 and 17.14 and 15.89 and 16.28 | Body Weight D10 (IMI + 3 mg/kg, 3 mg/kg): 14.23 and 15.76 (2×) and 17.87 and 16.28 and 17.32 and 15.99 and 16.22 | Body Weight D11 [2]: 13.97 and 16.26 and 15.22 and 17.70 and 16.63 and 16.90 and 16.81 and 17.13 | Body Weight D12 [2]: 14.44 and 16.57 and 15.46 and 17.60 and 17.05 and 16.97 and 16.65 and 17.68 | Body Weight D13 [2]: 13.94 and 16.60 and 15.54 and 17.74 and 16.71 and 17.05 and 16.35 and 17.58 | Body Weight D14 [2]: 13.70 and 16.12 and 15.70 and 17.96 and 17.04 and 17.47 and 16.08 and 17.19 | Body Weight D15 (IMI + 3 mg/kg, 3 mg/kg): 13.78 and 16.88 and 15.93 and 18.05 and 17.29 (2×) and 17.08 and 15.94 | MBWC D1-D8 (IMI + 3 mg/kg, 3 mg/kg): −2.47 and −3.26 and −2.27 and −0.22 and −0.12 and −0.27 and −1.39 and −1.57 | MBWC D8-D15 (IMI + 3 mg/kg, 3 mg/kg): 0.21 and 1.21 and 0.49 and 0.46 and 0.78 (2×) and 0.01 and −0.19 | Body Weight D1 [3]: 18.66 and 16.97 and 17.99 and 16.59 and 14.70 and 18.45 and 16.88 and 17.79 | Body Weight D3 (IMI + 10 mg/kg, 10 mg/kg): 16.89 and 15.12 (2×) and 16.64 and 15.35 and 12.66 and 15.18 and 15.47 | Body Weight D5 [3]: 16.85 and 16.05 and 17.14 and 16.55 and 13.95 and 16.19 and 15.85 and 16.46 | Body Weight D7 (IMI + 10 mg/kg, 10 mg/kg): 17.09 and 15.74 and 18.31 and 16.60 and 14.04 and 16.64 (2×) and 16.00 | Body Weight D8 [3]: 16.51 and 15.56 and 18.14 and 16.14 and 14.02 and 16.16 and 15.50 and 16.26 | Body Weight D9 [3]: 16.61 and 15.20 and 17.85 and 15.85 and 13.92 and 15.86 and 15.31 and 16.41 | Body Weight D10 [3]: 16.48 and 15.64 and 18.33 and 16.10 and 13.59 and 15.70 and 15.00 and 15.80 | Body Weight D11 [3]: 16.44 and 15.87 and 17.94 and 16.30 and 14.37 and 16.54 and 16.26 and 16.95 | Body Weight D12 [3]: 16.63 and 16.40 and 18.54 and 16.96 and 14.74 and 16.69 and 16.23 and 17.34 | Body Weight D13 [3]: 17.12 and 16.52 and 18.44 and 16.93 and 14.68 and 16.17 and 16.27 and 16.95 | Body Weight D14 [3]: 17.36 and 16.91 and 18.32 and 17.28 and 15.12 and 16.21 and 16.48 and 17.35 | Body Weight D15 [3]: 18.01 and 16.93 and 18.51 and 17.31 and 15.47 and 16.86 and 16.66 and 17.96 | MBWC D1-D8 (IMI + 10 mg/kg, 10 mg/kg): −2.15 and −1.41 and 0.15 and −0.45 and −0.68 and −2.29 and −1.38 and −1.53 | MBWC D8-D15 (IMI + 10 mg/kg, 10 mg/kg): 1.50 and 1.37 and 0.37 and 1.17 and 1.45 and 0.70 and 1.16 and 1.70 | PASI Scores (D8 (day treatment started)): 7 (2×) and 6 (3×) and 8 (3×) | PASI Scores (D9): 8 (3×) and 9 and 5 (3×) and 6 | PASI Scores (D10): 6 (4×) and 5 (2×) and 7 (2×) | PASI Scores (D11): 8 and 6 (4×) and 4 and 7 and 9 | PASI Scores (D12): 6 (6×) and 4 and 5
